We go through 40 molecules from US9249147B2, “Tyrosine kinase inhibitors” (CHEMBRIDGE CORPORATION, priority 2008, dated 2016).

The target in test [1] is ALK (Homo sapiens, UniProt Q9UM73). Put plainly: ALK kinase assay (Kinase-Glo / AlphaScreen, purified NPM-ALK). Details: fused to the complete intracytoplasmic portion of ALK containing the functional tyrosine kinase domain; 6xHis; made in house; host or cells: insect cells; the other entry of the earlier key: NPM1 (P06748, Nucleophosmin). The following applies: Table 1; read-out: ALK IC50. The test is classed as biochemical.
Sequence of ALK (Q9UM73 with tags, fused parts or gaps): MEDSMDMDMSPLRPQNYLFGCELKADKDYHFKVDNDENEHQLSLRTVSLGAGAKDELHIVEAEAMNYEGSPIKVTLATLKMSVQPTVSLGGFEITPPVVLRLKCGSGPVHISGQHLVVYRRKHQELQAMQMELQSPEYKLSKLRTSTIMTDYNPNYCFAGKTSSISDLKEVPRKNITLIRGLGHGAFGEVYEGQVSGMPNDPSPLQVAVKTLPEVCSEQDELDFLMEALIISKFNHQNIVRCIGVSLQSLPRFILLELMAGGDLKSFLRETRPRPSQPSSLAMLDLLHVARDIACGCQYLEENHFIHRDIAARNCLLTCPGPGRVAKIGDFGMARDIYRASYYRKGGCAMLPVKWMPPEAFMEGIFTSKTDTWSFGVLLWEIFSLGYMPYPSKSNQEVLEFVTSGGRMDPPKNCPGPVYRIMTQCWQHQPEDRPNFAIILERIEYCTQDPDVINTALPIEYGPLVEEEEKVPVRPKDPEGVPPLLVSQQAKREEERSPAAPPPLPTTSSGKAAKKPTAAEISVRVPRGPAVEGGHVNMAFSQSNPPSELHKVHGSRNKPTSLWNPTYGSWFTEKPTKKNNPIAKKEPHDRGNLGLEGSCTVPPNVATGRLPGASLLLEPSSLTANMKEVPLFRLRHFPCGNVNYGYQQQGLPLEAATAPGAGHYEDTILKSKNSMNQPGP

Test [2] has as its target T1, IGF1R (Homo sapiens, UniProt P08069).
T1 construct: 6×His- or GST-tagged kinase domain fragments of the corresponding RTKs expressed in baculovirus system; host or cells: baculovirus system
Put plainly: IGF1R kinase assay. Particulars: Table 1; read-out: IGF1R IC50. The test is classed as biochemical. On the procedure:
To determine inhibition of several tyrosine kinases, such as IGF1R, InsR, Alk, TrkA and Jak2, kinase assays are conducted using either Kinase-Glo (Promega) or AlphaScreen (PerkinElmer) kinase assay platforms. The Kinase-Glo Luminescent Kinase Assay is a homogeneous method for measuring kinase activity by determining the amount of ATP remaining after a kinase reaction. The luminescent signal is proportional to the amount of ATP and inversely proportional to the amount of kinase activity. Tyrosine kinase PT66 AlphaScreen Assay is a high-sensitivity homogeneous, anti-phosphotyrosine antibody-mediated luminescent proximity method measuring incorporation of phosphate in synthetic poly(Glu-Tyr) substrate. The kinase preparations used consist of purified recombinant, 6×His- or GST-tagged kinase domain fragments of the corresponding RTKs expressed in baculovirus system.
Compounds with a range of concentrations 40 μM, 20 μM, 10 μM, 5 μM, 2.5 μM, 1.25 μM, 0.625 μM, 0.3125 μM, 0.15625 μM and 0.078125 μM were incubated with NPM-ALK, which was produced in insect cells as a 6×HIS-tagged fusion protein and purified using nickel-charged resin chromatography, for 30 minutes at RT in the presence of 10 μM ATP and 7.0 ng biotinylated poly-GT. A 1:1 mixture of […] and donor beads was then added to the reaction and incubated for an additional 60 minutes at RT. The assay was conducted on a MultiPROBE liquid handling workstation (PerkinElmer) in a 384-well plate format with a total reaction volume of 40 μL per well. Working stocks of all compounds were dissolved in 100% DMSO and serial dilutions of the compounds were performed using kinase buffer (50 mM Tris-HCl (pH 7.5), 5 mM MgCl2, 5 mM MnCl2, 2 mM DTT (added freshly before use), 0.01% Tween-20) containing 5% DMSO. […] Data were collected as optical readings at 520-680 nm on a Fusion™ microplate analyzer (PerkinElmer), and IC50 and Ki values calculated using PRISM3.0 software (GraphPad Software, Inc., San Diego, Calif.). The same assay was also used with minor modifications to assess the IC50 and Ki values for selected compounds against five other tyrosine kinases (IRK, IGF1R, Flt3, Abl, Src), all of which were purchased from commercial vendors. PolyGT-Biotin was bought from CIS Biointernational Cat. #61GT0BLD; ATP—from Sigma Cat. # A7699; sodium orthovanadate—from Sigma Cat. #S-6508; phosphotyrosine (PT66) assay kit from PerkinElmer Cat. #6760602M; automated workstation tips (20 μL): PerkinElmer Cat. #6000657; and OptiPlate-384 (white)—from PerkinElmer Cat. #6007299.

T1 sequence (P08069 999-1274 limits assumed): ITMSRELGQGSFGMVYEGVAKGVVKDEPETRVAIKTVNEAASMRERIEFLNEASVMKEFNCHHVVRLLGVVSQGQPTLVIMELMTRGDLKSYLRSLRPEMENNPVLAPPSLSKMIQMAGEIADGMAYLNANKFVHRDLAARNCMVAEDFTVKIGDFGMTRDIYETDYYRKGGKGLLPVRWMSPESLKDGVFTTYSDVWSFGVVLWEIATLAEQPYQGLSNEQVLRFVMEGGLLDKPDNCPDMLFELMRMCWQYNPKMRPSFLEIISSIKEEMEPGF

Broadly, the IC50 is the concentration at which inhibition is half-maximal. For `CN1CCC(N2C(=O)c3cc4nc(-c5c(N[C@H](CO)Cc6ccccc6)cc[nH]c5=O)[nH]c4cc3C2=O)CC1`, the IC50 in test [1] is more than 1000 nM.
Consider `COC[C@H](Cc1ccccc1)Nc1cc[nH]c(=O)c1-c1nc2cc3c(cc2[nH]1)C(=O)N(C1CCN(C)CC1)C3=O`, for which the IC50 in test [1] was more than 1000 nM.
On to `COC[C@@H](Cc1ccccc1)Nc1cc[nH]c(=O)c1-c1nc2cc3c(cc2[nH]1)C(=O)N(C1CCN(C)CC1)C3=O`, for which the IC50 in test [1] was more than 1000 nM.
As to `CC(Cc1cccs1)Nc1cc[nH]c(=O)c1-c1nc2cc3c(cc2[nH]1)CN(CCCN1CCCC1)C3=O` (centres unmarked), the IC50 in test [1] was in the range of 100 to 250 nM; in test [2] it was 250 to 1000 nM.
As to `CC(Cc1ccsc1)Nc1cc[nH]c(=O)c1-c1nc2cc3c(cc2[nH]1)C(=O)N(CCCN1CCCC1)C3=O` (centres unmarked), in test [1], the IC50 was in the range of 100 to 250 nM.
Regarding `CC(Cc1ccsc1)Nc1cc[nH]c(=O)c1-c1nc2cc3c(cc2[nH]1)C(=O)N(CCCN1CCCC1)C3` (centres unmarked), the IC50 in test [1] and in test [2] was 250 to 1000 nM in each case.
As for `CCC(Cc1cccs1)Nc1cc[nH]c(=O)c1-c1nc2cc3c(cc2[nH]1)C(=O)N(CCCN1CCCC1)C3=O` (centres unmarked), the IC50 in test [1] was 250 to 1000 nM.
With `CCC(Cc1cccs1)Nc1cc[nH]c(=O)c1-c1nc2cc3c(cc2[nH]1)C(=O)N(CCCN1CCCC1)C3` (centres unmarked), the IC50 in test [1] is more than 1000 nM.
Consider `Cc1noc(C)c1CC(C)Nc1cc[nH]c(=O)c1-c1nc2cc3c(cc2[nH]1)C(=O)N(CCCN1CCCC1)C3=O` (centres unmarked), for which the IC50 in test [1] and in test [2] was more than 1000 nM each time.
Take `Cc1noc(C)c1CC(C)Nc1cc[nH]c(=O)c1-c1nc2cc3c(cc2[nH]1)C(=O)N(CCCN1CCCC1)C3` (centres unmarked): the IC50 in test [1] and in test [2] was more than 1000 nM in each case.
With `C[C@@H](Cc1cccs1)Nc1cc[nH]c(=O)c1-c1nc2cc3c(cc2[nH]1)C(=O)N(C1CCN(C)CC1)C3`, the IC50 fell in the range of 100 to 250 nM in test [1] and 10 to 100 nM in test [2].
Consider `C[C@H](Cc1cccs1)Nc1cc[nH]c(=O)c1-c1nc2c(Cl)c3c(cc2[nH]1)C(=O)N(C1CCN(C)CC1)C3`, for which the IC50 in test [1] is more than 1000 nM; in test [2], 250 to 1000 nM.
Take `C[C@H](Cc1cccs1)Nc1cc[nH]c(=O)c1-c1nc2cc3c(c(Cl)c2[nH]1)C(=O)N(C1CCN(C)CC1)C3`: the 50% inhibitory concentration (IC50) in test [1] was in the range of 250 to 1000 nM; in test [2], 100 to 250 nM.
Take `Cc1ccc(CC(C)Nc2cc[nH]c(=O)c2-c2nc3cc4c(cc3[nH]2)C(=O)N(CCCN2CCCC2)C4)s1` (centres unmarked): the IC50 in test [1] was more than 1000 nM; in test [2], 100 to 250 nM.
Consider `Cc1ccsc1CC(C)Nc1cc[nH]c(=O)c1-c1nc2cc3c(cc2[nH]1)C(=O)N(CCCN1CCCC1)C3` (centres unmarked), for which the half-inhibitory concentration (IC50) in test [1] and in test [2] was 100 to 250 nM throughout.
For `Cc1csc(CC(C)Nc2cc[nH]c(=O)c2-c2nc3cc4c(cc3[nH]2)C(=O)N(CCCN2CCCC2)C4)c1` (centres unmarked), the IC50 in test [1] and in test [2] was 250 to 1000 nM in each case.
As for `C[C@@H](Cc1sccc1Cl)Nc1cc[nH]c(=O)c1-c1nc2cc3c(cc2[nH]1)C(=O)N(CCN1CCCC1)C3=O`, the IC50 in test [1] was 100 to 250 nM; in test [2], 250 to 1000 nM.
As to `Cc1ccsc1C[C@H](C)Nc1cc[nH]c(=O)c1-c1nc2cc3c(cc2[nH]1)CN(CCN1CCS(=O)(=O)CC1)C3=O`, the IC50 fell in the range of 100 to 250 nM in test [1] and 250 to 1000 nM in test [2].
In the case of `Cc1ccsc1C[C@H](C)Nc1cc[nH]c(=O)c1-c1nc2cc3c(cc2[nH]1)C(=O)N(CCN(C)CCS(C)(=O)=O)C3=O`, the IC50 is 100 to 250 nM in test [1] and more than 1000 nM in test [2].
Consider `Cc1ccsc1C[C@H](C)Nc1cc[nH]c(=O)c1-c1nc2cc3c(cc2[nH]1)C(=O)N(CCN(C)CCS(C)(=O)=O)C3`, for which the concentration for half-maximal inhibition (IC50) in test [1] is 10 to 100 nM; in test [2] it was 250 to 1000 nM.
As to `Cc1ccccc1C[C@H](C)Nc1cc[nH]c(=O)c1-c1nc2cc3c(cc2[nH]1)C(=O)N(CCN1CCCC1)C3=O`, the IC50 in test [1] was 10 to 100 nM; in test [2], more than 1000 nM.
Regarding `Cc1ccccc1C[C@H](C)Nc1cc[nH]c(=O)c1-c1nc2cc3c(cc2[nH]1)CN(CCN1CCCC1)C3=O`, the values for the IC50 in test [1] and in test [2] were 10 to 100 nM and 250 to 1000 nM, respectively.
`C[C@@H](Cc1ccco1)Nc1cc[nH]c(=O)c1-c1nc2cc3c(cc2[nH]1)C(=O)N(CCN1CCCC1)C3=O`: the IC50 in test [1] was 100 to 250 nM; in test [2], more than 1000 nM.
In the case of `C[C@@H](Cc1ccco1)Nc1cc[nH]c(=O)c1-c1nc2cc3c(cc2[nH]1)CN(CCN1CCCC1)C3=O`, the IC50 in test [1] was 100 to 250 nM; in test [2] it was 250 to 1000 nM.
Regarding `CCN1CCC[C@@H]1CN1Cc2cc3nc(-c4c(N[C@@H](C)Cc5sccc5C)cc[nH]c4=O)[nH]c3cc2C1=O`, the IC50 in test [1] was 100 to 250 nM; in test [2], 250 to 1000 nM.
For `CCN1CCC[C@H]1CN1Cc2cc3nc(-c4c(N[C@@H](C)Cc5sccc5C)cc[nH]c4=O)[nH]c3cc2C1=O`, in that order: 10 to 100 nM and 100 to 250 nM.
For `C[C@@H](Cc1sccc1Cl)Nc1cc[nH]c(=O)c1-c1nc2cc3c(cc2[nH]1)C(=O)N([C@@H](C)CN(C)C)C3=O`, the IC50 in test [1] is 10 to 100 nM; in test [2] it was more than 1000 nM.
In the case of `C[C@H](CN(C)C)N1C(=O)c2cc3nc(-c4c(N[C@@H](C)Cc5sccc5Cl)cc[nH]c4=O)[nH]c3cc2C1=O`, the results for the IC50 in test [1] and in test [2] were 10 to 100 nM and more than 1000 nM, respectively.
As for `C[C@@H](Cc1sccc1Cl)Nc1cc[nH]c(=O)c1-c1nc2cc3c(cc2[nH]1)C(=O)N(C[C@H](C)N(C)C)C3=O`, the IC50 is 10 to 100 nM in test [1] and more than 1000 nM in test [2].
Take `C[C@@H](Cc1sccc1Cl)Nc1cc[nH]c(=O)c1-c1nc2cc3c(cc2[nH]1)C(=O)N([C@@H](C)CN(C)C)C3`: the 50% inhibitory concentration (IC50) in test [1] fell in the range of 10 to 100 nM; in test [2], 100 to 250 nM.
Consider `C[C@H](CN1C(=O)c2cc3nc(-c4c(N[C@@H](C)Cc5sccc5Cl)cc[nH]c4=O)[nH]c3cc2C1=O)N(C)C`, for which the values for the IC50 in test [1] and in test [2] were 10 to 100 nM and more than 1000 nM, respectively.
As to `C[C@H](CN(C)C)N1Cc2cc3nc(-c4c(N[C@@H](C)Cc5sccc5Cl)cc[nH]c4=O)[nH]c3cc2C1=O`, the concentration for half-maximal inhibition (IC50) in test [1] lay in the range of 10 to 100 nM; in test [2], 100 to 250 nM.
Take `C[C@@H](Cc1sccc1Cl)Nc1cc[nH]c(=O)c1-c1nc2cc3c(cc2[nH]1)C(=O)N(C[C@H](C)N(C)C)C3`: the IC50 is less than 10 nM in test [1] and 250 to 1000 nM in test [2].
For `C[C@H](CN1Cc2cc3nc(-c4c(N[C@@H](C)Cc5sccc5Cl)cc[nH]c4=O)[nH]c3cc2C1=O)N(C)C`, the IC50 in test [1] was less than 10 nM; in test [2], 250 to 1000 nM.
Consider `C[C@@H](Cc1ccccc1F)Nc1cc[nH]c(=O)c1-c1nc2cc3c(cc2[nH]1)CN(CCN1CCCC1)C3=O`, for which the concentration for half-maximal inhibition (IC50) in test [1] was 100 to 250 nM; in test [2] it was 250 to 1000 nM.
Regarding `Cc1c(C[C@H](C)Nc2cc[nH]c(=O)c2-c2nc3cc4c(cc3[nH]2)CN(CCN2CCCC2)C4=O)ccc(F)c1F`, the IC50 in test [1] and in test [2] was more than 1000 nM throughout.
Take `Cc1c(C[C@H](C)Nc2cc[nH]c(=O)c2-c2nc3cc4c(cc3[nH]2)CN(CCN(C)C)C4=O)ccc(F)c1F`: the IC50 in test [1] and in test [2] was more than 1000 nM in each case.
For the molecule `C[C@@H](Cc1cc(F)cc(F)c1F)Nc1cc[nH]c(=O)c1-c1nc2cc3c(cc2[nH]1)CN(CCN1CCCC1)C3`, the 50% inhibitory concentration (IC50) in test [1] and in test [2] was 250 to 1000 nM throughout.
As for `Cc1c(F)cc(F)cc1C[C@H](C)Nc1cc[nH]c(=O)c1-c1nc2cc3c(cc2[nH]1)CN(CCN1CCCC1)C3=O`, the half-inhibitory concentration (IC50) is more than 1000 nM in test [1] and 250 to 1000 nM in test [2].
Turning to `Cc1c(F)cc(F)cc1C[C@H](C)Nc1cc[nH]c(=O)c1-c1nc2cc3c(cc2[nH]1)CN(CCN(C)C)C3=O`, the figures for the IC50 in test [1] and in test [2] were 100 to 250 nM and 250 to 1000 nM, respectively.
